Tests used:
[1] = Cardiotoxicity in ICR mouse assessed as upregulation of Myh6 mRNA expression in heart at 1 mg/kg, po administered as single dose by qRT-PCR analysis; assay type: toxicity, organism-based; conditions: in vivo
[2] = Toxicity in ICR mouse assessed as decrease in serum total cholesterol level at 1 mg/kg, po administered as single dose measured after 24 hrs by automated biochemical analyzer; assay type: organism-based; parameters: scale not given: the % may be the effect or the level left; conditions: in vivo
[3] = Toxicity in ICR mouse assessed as decrease in serum total LDL-cholesterol level at 1 mg/kg, po administered as single dose measured after 24 hrs by automated biochemical analyzer; assay type: organism-based; parameters: scale not given: the % may be the effect or the level left; conditions: in vivo
[4] = Metabolic stability in rat liver microsomes assessed as intrinsic clearance; assay type: ADME, Microsome
[5] = Metabolic stability in human liver microsomes assessed as half life; assay type: ADME, Microsome
[6] = Tmax in ICR mouse serum at 10 mg/kg, po measured after 24 hrs by LC-MS/MS analysis; assay type: ADME, organism-based
[7] = Toxicity in ICR mouse assessed as decrease in serum total cholesterol level at 3 mg/kg, po administered as single dose measured after 24 hrs by automated biochemical analyzer; assay type: organism-based; parameters: scale not given: the % may be the effect or the level left; conditions: in vivo
[8] = Toxicity in ICR mouse assessed as decrease in serum total cholesterol level at 30 mg/kg, po administered as single dose measured after 24 hrs by automated biochemical analyzer; assay type: organism-based; parameters: scale not given: the % may be the effect or the level left; conditions: in vivo
[9] = Metabolic stability in mouse liver microsomes assessed as intrinsic clearance; assay type: ADME, Microsome
[10] = Cmax in ICR mouse serum at 10 mg/kg, po measured after 24 hrs by LC-MS/MS analysis; assay type: ADME, organism-based; parameters: dose 10 mg/kg, time 24 hrs, route po
[11] = Cardiotoxicity in ICR mouse assessed as changes in Myh7 mRNA expression in heart at 3 to 10 mg/kg, po administered as single dose by qRT-PCR analysis; assay type: toxicity, organism-based; conditions: in vivo, dose 3-10 mg/kg
[12] = Half life in ICR mouse at 30 mg/kg, po measured after 24 hrs by LC-MS/MS analysis; assay type: ADME, organism-based; conditions: in vivo
[13] = Toxicity in ICR mouse assessed as decrease in serum total LDL-cholesterol level at 3 mg/kg, po administered as single dose measured after 24 hrs by automated biochemical analyzer; assay type: organism-based; parameters: scale not given: the % may be the effect or the level left; conditions: in vivo
[14] = Metabolic stability in rat liver microsomes assessed as half life; assay type: ADME, Microsome
[15] = Hepatotoxicity in ICR mouse assessed as upregulation of Me1 mRNA expression in liver by measuring fold change at 3 to 10 mg/kg, po administered as single dose by qRT-PCR analysis; assay type: toxicity, organism-based; conditions: in vivo, dose 3-10 mg/kg
[16] = AUClast in ICR mouse at 30 mg/kg, po measured after 24 hrs by LC-MS/MS analysis; assay type: ADME, organism-based; parameters: dose 30 mg/kg, time 24 hrs, route po; conditions: in vivo
[17] = AUClast in ICR mouse liver at 10 mg/kg, po measured after 24 hrs by LC-MS/MS analysis; assay type: ADME, organism-based; conditions: in vivo
[18] = Tmax in ICR mouse liver at 10 mg/kg, po measured after 24 hrs by LC-MS/MS analysis; assay type: ADME, organism-based
[19] = Half life in ICR mouse serum at 10 mg/kg, po measured after 24 hrs by LC-MS/MS analysis; assay type: ADME, organism-based
[20] = Cardiotoxicity in ICR mouse assessed as changes in Myh6/Myh7 ratio in heart at 3 to 10 mg/kg, po administered as single dose by qRT-PCR analysis; assay type: toxicity, organism-based; conditions: in vivo, dose 3-10 mg/kg
[21] = Hepatotoxicity in ICR mouse assessed as upregulation of Dio1 mRNA expression in liver by measuring fold change at 3 to 10 mg/kg, po administered as single dose by qRT-PCR analysis; assay type: toxicity, organism-based; conditions: in vivo, dose 3-10 mg/kg
[22] = Hepatotoxicity in ICR mouse assessed as upregulation of THRSP mRNA expression in liver by measuring fold change at 3 to 10 mg/kg, po administered as single dose by qRT-PCR analysis; assay type: toxicity, organism-based; conditions: in vivo, dose 3-10 mg/kg
[23] = Toxicity in ICR mouse assessed as decrease in serum total cholesterol level at 10 mg/kg, po administered as single dose measured after 24 hrs by automated biochemical analyzer; assay type: organism-based; parameters: scale not given: the % may be the effect or the level left; conditions: in vivo
[24] = Toxicity in ICR mouse assessed as decrease in serum total LDL-cholesterol level at 10 mg/kg, po administered as single dose measured after 24 hrs by automated biochemical analyzer; assay type: organism-based; parameters: scale not given: the % may be the effect or the level left; conditions: in vivo
[25] = AUClast in ICR mouse serum at 10 mg/kg, po measured after 24 hrs by LC-MS/MS analysis; assay type: ADME, organism-based; parameters: time 24 hrs, dose 10 mg/kg, route po
[26] = Cmax in ICR mouse at 30 mg/kg, po measured after 24 hrs by LC-MS/MS analysis; assay type: ADME, organism-based; parameters: time 24 hrs, dose 30 mg/kg, route po; conditions: in vivo
[27] = Metabolic stability in mouse liver microsomes assessed as half life; assay type: ADME, Microsome
[28] = Tmax in ICR mouse at 30 mg/kg, po measured after 24 hrs by LC-MS/MS analysis; assay type: ADME, organism-based; conditions: in vivo
[29] = Metabolic stability in human liver microsomes assessed as intrinsic clearance; assay type: ADME, Microsome
[30] = Cardiotoxicity in ICR mouse assessed as changes in Myh6 mRNA expression in heart at 3 to 10 mg/kg, po administered as single dose by qRT-PCR analysis; assay type: toxicity, organism-based; conditions: in vivo, dose 3-10 mg/kg
[31] = Cmax in ICR mouse liver at 10 mg/kg, po measured after 24 hrs by LC-MS/MS analysis; assay type: ADME, organism-based; parameters: dose 10 mg/kg, time 24 hrs, route po

Structure (SMILES): N[C@@H](Cc1cc(I)c(Oc2ccc(O)c(I)c2)c(I)c1)C(=O)O [LIOTHYRONINE]
- Activity [1]: Toxic
- Activity [2]: 44%
- Activity [3]: 61.9%

Structure (SMILES): CC(C)c1cc(Oc2c(Cl)cc(-n3nc(C#N)c(=O)[nH]c3=O)cc2Cl)n[nH]c1=O [RESMETIROM]
- CLH [4]: 8.6 mL/min/g
- half-life [5]: 1.32 h
- Tmax [6]: 2.7 h
- Activity [7]: 27.2%
- Activity [8]: 20.4%
- CLH [9]: 9 mL/min/g
- Cmax [10]: 5710 ng/mL
- Activity [11]: Non-Toxic
- half-life [12]: 16.7 h
- Activity [13]: 39.3%
- half-life [14]: 4.08 h
- fold change (FC) [15]: 1.8
- AUC(0-t) at 24 h [16]: 168 µg·h/mL
- AUClast [17]: 349501 ng·h/g
- Tmax [18]: 4 h
- half-life [19]: 9.1 h
- Activity [20]: Non-Toxic
- fold change (FC) [21]: 12
- fold change (FC) [22]: 10
- Activity [23]: 36.9%
- Activity [24]: 39.8%
- AUC(0-t) at 24 h [25]: 57.1 µg·h/mL
- Cmax [26]: 12100 ng/mL
- half-life [27]: 3.88 h
- Tmax [28]: 6 h
- CLH [29]: 26.5 mL/min/g
- Activity [30]: Non-Toxic
- Cmax [31]: 24300 ng/g
